“Also recorded” adds a separate entry of the source.
Key:
[1] = system: supercoiled pUC19 plasmid; assay: Hydroxyl radical scavenging, plasmid DNA protection; type: biochemical; details: 0-70 mM, pH 6.5; even the lowest concentration tested; UV 2.5 min
Protocol: Method: 0.3 μg pUC19 plasmid was added to a 16 μl incubation containing Tris-EDTA buffer, then either PrC-210 (0-70 mM, pH 6.5) or buffer were added to the incubation. The polypropylene microtubes were then sealed and irradiated for 2.5 min at a distance of 80 cm from a UV lamp. Samples were then applied to 1% agarose gels and electrophoresed using methods known in the art.

[2] = system: B16 melanoma tumor xenografts; assay: Effect of topical drug on killing of tumor xenograft by systemic Cytoxan; type: in vivo, mouse; details: topical dose 5-times higher than standard regimen; Cytoxan 200 ug/gm b.w. ip
[3] = system: radiation-induced dermatitis on backs of rats; assay: Radiation-induced dermatitis in rat skin model; type: in vivo
[4] = system: p21 in human fibroblasts; assay: p21 western blot in human skin fibroblasts; type: cell-based; details: IC70 concentration of PrC-210 (4100 μM); cysteamine 600 μM; 30 hour exposure
Protocol: (§1) Methods (Cell cycle and p21 western): The cell culture experiments were done using primary, human skin fibroblasts, one strain of which (BJ cells) was obtained from ATCC (American Type Culture Collection). […] For flow cytometry and p21 experiments, cells were plated at 0.5×10^6 cells/150 mm plate, and 24 hr later, drug molecules (4100 μM PrC-210, 600 μM cysteamine, 205 μM cysteamine analog, 0.4 μg/ml colcemid) were added to medium. […] (Cancer Research. 61(21):7754-62, 2001). As per the cited reference, cells were fixed, treated with RNAse, and stained with propidium iodide for flow cytometry, or cells were extracted, proteins electrophoresed, and probed with anti-p21 antibody (#SXM-30) for western blot analysis.

[5] = system: primary, human skin fibroblasts; assay: Cell cycle block in human skin fibroblasts (flow cytometry); type: cell-based
Protocol: as §1

**Q.** `CNCC(CS)CNC` [PrC-210, 3-methylamino-2-methylaminomethyl-propane-1-thiol] was tested. Which “protection of supercoiled DNA from OH radical damage” value [1] did it give?
**A.** The value was “completely prevented damage to supercoiled DNA”.

**Q.** What about the “effect upon killing of tumor xenografts by systemic Cytoxan chemotherapy” value [2] of the same molecule?
**A.** Its value is “no discernible effect”.

**Q.** What about the “dose for complete protection in 0:95:5 vehicle relative to 50:30:20 vehicle” value ([3]; 0:95:5 versus 50:30:20 ethanol:PG:water) of the same molecule?
**A.** The value was “about 10 times”.

**Q.** What about the “Dermatitis Score (% of irradiated field free of scab material)” value ([3]; 370 mM, vehicle 0:95:5, Experiment 440-443) of the same molecule?
**A.** Its value is less than 50%.

**Q.** What about the “Dermatitis Score (% of irradiated field free of scab material)” value ([3]; 370 mM, vehicle 50:30:20, Experiment 574-577) of the same molecule?
**A.** Its value is 100 ± 0%.

**Q.** What about the “Dermatitis Score (% of irradiated field free of scab material)” value ([3]; 370 mM, vehicle 50:30:20, Experiment 643-646) of the same molecule?
**A.** The value was 98 ± 3%.

**Q.** What about the “Dermatitis Score (% of irradiated field free of scab material)” value ([3]; 740 mM, vehicle 0:95:5 ethanol:prop. glycol:water, Experiment 440-443) of the same molecule?
**A.** The value was 68%.

**Q.** And the “Dermatitis Score (% of irradiated field free of scab material)” value ([3]; 740 mM, vehicle 50:30:20, Experiment 626-629)?
**A.** The value was 96 ± 3%.

**Q.** What about the “Dermatitis Score (% of irradiated field free of scab material)” value ([3]; 740 mM, vehicle 50:30:20, Experiment 643-646) of the same molecule?
**A.** Its value is 96 ± 4%.

**Q.** What about the “Dermatitis Score (% of irradiated field free of scab material)” value ([3]; 900 mM PrC-210, vehicle 0:95:5, cage 440, 8.7 Gy) of the same molecule?
**A.** The value was 68 ± 10%.

**Q.** And the “Dermatitis Score (% of irradiated field free of scab material)” value ([3]; 1200 mM PrC-210, vehicle 0:95:5, cage 441)?
**A.** The value was 95 ± 5%.

**Q.** And the “concentration conferring complete protection against radiation-induced dermatitis” value ([3]; 95:5 PG:water vehicle)?
**A.** The value was 1200 to 1500 mM.

**Q.** What about the “concentration of topical aminothiol alone conferring complete protection against radiodermatitis” value ([3]; aminothiol alone, without epinephrine, 8.7 Gy) of the same molecule?
**A.** The value was roughly 1200 mM.

**Q.** What about the “dose required for complete protection (100% Clear Skin) against radiodermatitis” value ([3]; vehicle 0:95:5 ethanol:PG:water) of the same molecule?
**A.** The value was roughly 24 mg/cm skin.

**Q.** And the “applied dose conferring complete protection against radiation-induced dermatitis” value ([3]; vehicle 50:30:20 ethanol:PG:water)?
**A.** Its value is 2.8 mg/cm^2 skin.

**Q.** What about the “concentration conferring complete protection against radiation-induced dermatitis” value ([3]; vehicle 50:30:20 ethanol:PG:water, total applied volume 105 ul) of the same molecule?
**A.** The value was 370 mM.

**Q.** And the p21 expression [4]?
**A.** The p21 expression was “induces expression of the cell cycle regulator, p21; also recorded: marked induction of p21 expression”.

**Q.** What about the “time to reversion to normal cell division after wash-out” value ([5]; change of cell culture medium) of the same molecule?
**A.** The value was no more than 48 h.

**Q.** And the “cell cycle block (phase)” value ([5]; log-phase human fibroblast cultures)?
**A.** Its value is “in the G1 phase of the cell cycle; also recorded: G1-specific cell cycle block; also recorded: reversible G1 cell cycle block”.

**Q.** What about the “reversibility of cell cycle block” value ([5]; upon washout or removal of the drug) of the same molecule?
**A.** The value was “reversible”.
